Measured values reported in ChEMBL document CHEMBL4507301 (2021).

Assays:
[1] = test system: Tyrosine-protein kinase ABL1 (Homo sapiens), P00519 [H396P]; conditions: Compound concentration 1000.0 nM
[2] = target: Activin receptor type-2B (Homo sapiens) (UniProt Q13705); conditions: Compound concentration 1000.0 nM
[3] = target: 5'-AMP-activated protein kinase catalytic subunit alpha-2 (Homo sapiens) (UniProt P54646); conditions: Compound concentration 1000.0 nM
[4] = target: Aurora kinase C (Homo sapiens) (UniProt Q9UQB9); conditions: Compound concentration 1000.0 nM
[5] = target: Cyclin-dependent kinase-like 3 (Homo sapiens) (UniProt Q8IVW4); conditions: Compound concentration 1000.0 nM
[6] = target: Dual specificity protein kinase CLK3 (Homo sapiens) (UniProt P49761); conditions: Compound concentration 1000.0 nM
[7] = target: Macrophage colony-stimulating factor 1 receptor (Homo sapiens) (UniProt P07333); conditions: Compound concentration 1000.0 nM
[8] = target: Death-associated protein kinase 3 (Homo sapiens) (UniProt O43293); conditions: Compound concentration 1000.0 nM
[9] = target: Serine/threonine-protein kinase MRCK gamma (Homo sapiens) (UniProt Q6DT37); conditions: Compound concentration 1000.0 nM
[10] = target: Dual specificity tyrosine-phosphorylation-regulated kinase 2 (Homo sapiens) (UniProt Q92630); conditions: Compound concentration 1000.0 nM
Chain of Dual specificity tyrosine-phosphorylation-regulated kinase 2 (Homo sapiens) (Q92630 whole entry): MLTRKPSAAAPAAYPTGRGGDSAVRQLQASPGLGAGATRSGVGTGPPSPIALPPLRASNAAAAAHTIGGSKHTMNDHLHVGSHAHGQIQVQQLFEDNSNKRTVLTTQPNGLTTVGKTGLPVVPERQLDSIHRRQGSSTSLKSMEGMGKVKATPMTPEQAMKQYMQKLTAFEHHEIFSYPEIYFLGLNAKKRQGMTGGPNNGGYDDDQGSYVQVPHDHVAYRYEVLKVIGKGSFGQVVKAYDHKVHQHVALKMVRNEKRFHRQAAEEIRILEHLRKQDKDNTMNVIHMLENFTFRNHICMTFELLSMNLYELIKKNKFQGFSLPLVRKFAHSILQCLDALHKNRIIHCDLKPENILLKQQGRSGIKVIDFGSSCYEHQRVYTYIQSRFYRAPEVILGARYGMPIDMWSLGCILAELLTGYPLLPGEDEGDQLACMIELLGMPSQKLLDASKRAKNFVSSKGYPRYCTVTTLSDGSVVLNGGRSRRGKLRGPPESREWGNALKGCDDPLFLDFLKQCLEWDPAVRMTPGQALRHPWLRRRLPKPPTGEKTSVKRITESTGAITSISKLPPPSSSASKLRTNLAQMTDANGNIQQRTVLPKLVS

[11] = target: Ephrin type-A receptor 3 (Homo sapiens) (UniProt P29320); conditions: Compound concentration 1000.0 nM
Chain of Ephrin type-A receptor 3 (Homo sapiens) (P29320 whole entry): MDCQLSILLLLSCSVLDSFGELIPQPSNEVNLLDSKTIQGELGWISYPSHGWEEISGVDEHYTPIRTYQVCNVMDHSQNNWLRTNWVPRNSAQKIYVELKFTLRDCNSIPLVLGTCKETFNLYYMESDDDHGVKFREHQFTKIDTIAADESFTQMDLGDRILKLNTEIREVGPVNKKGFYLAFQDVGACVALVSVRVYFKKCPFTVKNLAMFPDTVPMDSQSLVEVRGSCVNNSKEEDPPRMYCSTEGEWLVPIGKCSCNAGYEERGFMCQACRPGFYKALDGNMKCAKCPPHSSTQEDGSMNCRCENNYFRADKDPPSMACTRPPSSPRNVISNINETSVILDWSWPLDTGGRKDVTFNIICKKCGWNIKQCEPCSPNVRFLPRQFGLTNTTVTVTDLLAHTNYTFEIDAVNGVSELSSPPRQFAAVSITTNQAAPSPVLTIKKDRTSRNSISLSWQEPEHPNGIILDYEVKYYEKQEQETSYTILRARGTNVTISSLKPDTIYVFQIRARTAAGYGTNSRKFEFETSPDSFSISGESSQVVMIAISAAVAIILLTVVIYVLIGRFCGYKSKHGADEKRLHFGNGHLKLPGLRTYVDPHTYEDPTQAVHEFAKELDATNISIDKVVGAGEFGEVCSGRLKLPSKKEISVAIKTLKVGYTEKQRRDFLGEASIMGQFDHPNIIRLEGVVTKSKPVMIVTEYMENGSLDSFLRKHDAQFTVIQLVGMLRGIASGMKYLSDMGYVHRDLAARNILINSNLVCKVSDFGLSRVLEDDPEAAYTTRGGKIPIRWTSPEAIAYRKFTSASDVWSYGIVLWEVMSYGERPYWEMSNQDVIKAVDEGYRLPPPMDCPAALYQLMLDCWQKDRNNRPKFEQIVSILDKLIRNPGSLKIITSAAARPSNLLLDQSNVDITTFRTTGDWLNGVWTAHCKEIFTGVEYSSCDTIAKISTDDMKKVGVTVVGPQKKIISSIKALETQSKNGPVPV

[12] = target: Ephrin type-B receptor 2 (Homo sapiens) (UniProt P29323); conditions: Compound concentration 1000.0 nM
[13] = test system: Receptor-type tyrosine-protein kinase FLT3 (Homo sapiens), P36888 [D835V]; conditions: Compound concentration 1000.0 nM
[14] = target: Homeodomain-interacting protein kinase 1 (Homo sapiens) (UniProt Q86Z02); conditions: Compound concentration 1000.0 nM
Chain of Homeodomain-interacting protein kinase 1 (Homo sapiens) (Q86Z02 whole entry, looked up): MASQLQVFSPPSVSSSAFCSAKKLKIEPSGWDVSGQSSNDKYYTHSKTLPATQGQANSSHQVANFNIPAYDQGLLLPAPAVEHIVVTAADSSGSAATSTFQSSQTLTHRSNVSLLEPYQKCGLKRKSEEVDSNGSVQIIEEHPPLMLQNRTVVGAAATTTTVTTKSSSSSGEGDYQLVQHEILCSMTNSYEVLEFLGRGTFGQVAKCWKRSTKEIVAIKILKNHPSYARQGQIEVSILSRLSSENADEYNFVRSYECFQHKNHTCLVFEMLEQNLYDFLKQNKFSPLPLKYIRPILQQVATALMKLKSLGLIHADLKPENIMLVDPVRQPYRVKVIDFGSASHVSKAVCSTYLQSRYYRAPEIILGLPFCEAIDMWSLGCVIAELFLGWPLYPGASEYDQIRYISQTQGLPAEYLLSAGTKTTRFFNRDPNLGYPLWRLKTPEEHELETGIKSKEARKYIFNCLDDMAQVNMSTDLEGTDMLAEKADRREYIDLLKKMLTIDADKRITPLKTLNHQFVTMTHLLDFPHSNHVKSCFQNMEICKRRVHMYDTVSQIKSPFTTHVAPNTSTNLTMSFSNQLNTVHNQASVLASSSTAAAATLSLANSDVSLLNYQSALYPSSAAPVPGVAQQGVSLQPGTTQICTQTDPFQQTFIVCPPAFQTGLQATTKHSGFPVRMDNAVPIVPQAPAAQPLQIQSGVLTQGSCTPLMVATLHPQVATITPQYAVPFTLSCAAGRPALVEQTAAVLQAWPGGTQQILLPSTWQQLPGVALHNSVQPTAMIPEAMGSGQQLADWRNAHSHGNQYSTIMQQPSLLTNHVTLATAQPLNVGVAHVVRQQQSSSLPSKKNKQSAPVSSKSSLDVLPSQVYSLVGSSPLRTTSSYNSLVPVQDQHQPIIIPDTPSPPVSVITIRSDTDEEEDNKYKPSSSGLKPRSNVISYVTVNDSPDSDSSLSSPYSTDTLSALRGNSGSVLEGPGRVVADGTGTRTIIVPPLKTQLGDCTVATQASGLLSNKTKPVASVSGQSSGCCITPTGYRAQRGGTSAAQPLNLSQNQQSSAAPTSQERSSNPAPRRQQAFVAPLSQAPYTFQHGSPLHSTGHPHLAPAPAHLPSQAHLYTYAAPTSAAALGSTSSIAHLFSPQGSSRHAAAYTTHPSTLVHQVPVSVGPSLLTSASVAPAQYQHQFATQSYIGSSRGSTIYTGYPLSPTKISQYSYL

[15] = target: Insulin-like growth factor 1 receptor (Homo sapiens) (UniProt P08069); conditions: Compound concentration 1000.0 nM
[16] = target: Inhibitor of nuclear factor kappa-B kinase subunit alpha (Homo sapiens) (UniProt O15111); conditions: Compound concentration 1000.0 nM
[17] = target: Inhibitor of nuclear factor kappa-B kinase subunit beta (Homo sapiens) (UniProt O14920); conditions: Compound concentration 1000.0 nM
[18] = target: Inhibitor of nuclear factor kappa-B kinase subunit epsilon (Homo sapiens) (UniProt Q14164); conditions: Compound concentration 1000.0 nM
[19] = target: Leukocyte tyrosine kinase receptor (Homo sapiens) (UniProt P29376); conditions: Compound concentration 1000.0 nM
[20] = target: Mitogen-activated protein kinase kinase kinase 13 (Homo sapiens) (UniProt O43283); conditions: Compound concentration 1000.0 nM
[21] = target: Serine/threonine-protein kinase MAK (Homo sapiens) (UniProt P20794); conditions: Compound concentration 1000.0 nM
[22] = target: Mitogen-activated protein kinase kinase kinase kinase 4 (Homo sapiens) (UniProt O95819); conditions: Compound concentration 1000.0 nM
[23] = target: Dual specificity mitogen-activated protein kinase kinase 4 (Homo sapiens) (UniProt P45985); conditions: Compound concentration 1000.0 nM
[24] = target: Hepatocyte growth factor receptor (Homo sapiens) (UniProt P08581); conditions: Compound concentration 1000.0 nM
[25] = target: Mitogen-activated protein kinase kinase kinase 11 (Homo sapiens) (UniProt Q16584); conditions: Compound concentration 1000.0 nM
[26] = target: Myosin light chain kinase family member 4 (Homo sapiens) (UniProt Q86YV6); conditions: Compound concentration 1000.0 nM
Chain of Myosin light chain kinase family member 4 (Homo sapiens) (Q86YV6 whole entry): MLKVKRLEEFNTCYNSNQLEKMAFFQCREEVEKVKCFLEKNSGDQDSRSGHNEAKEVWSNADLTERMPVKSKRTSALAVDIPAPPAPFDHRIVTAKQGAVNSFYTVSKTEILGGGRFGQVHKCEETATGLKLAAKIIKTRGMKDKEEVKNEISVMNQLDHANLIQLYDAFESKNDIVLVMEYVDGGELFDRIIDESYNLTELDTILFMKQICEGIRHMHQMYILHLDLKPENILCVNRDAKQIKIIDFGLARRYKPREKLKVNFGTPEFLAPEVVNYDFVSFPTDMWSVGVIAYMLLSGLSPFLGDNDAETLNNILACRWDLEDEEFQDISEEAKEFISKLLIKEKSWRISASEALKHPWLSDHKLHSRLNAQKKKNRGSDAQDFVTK

[27] = target: Serine/threonine-protein kinase PAK 1 (Homo sapiens) (UniProt Q13153); conditions: Compound concentration 1000.0 nM
Chain of Serine/threonine-protein kinase PAK 1 (Homo sapiens) (Q13153 whole entry, canonical isoform): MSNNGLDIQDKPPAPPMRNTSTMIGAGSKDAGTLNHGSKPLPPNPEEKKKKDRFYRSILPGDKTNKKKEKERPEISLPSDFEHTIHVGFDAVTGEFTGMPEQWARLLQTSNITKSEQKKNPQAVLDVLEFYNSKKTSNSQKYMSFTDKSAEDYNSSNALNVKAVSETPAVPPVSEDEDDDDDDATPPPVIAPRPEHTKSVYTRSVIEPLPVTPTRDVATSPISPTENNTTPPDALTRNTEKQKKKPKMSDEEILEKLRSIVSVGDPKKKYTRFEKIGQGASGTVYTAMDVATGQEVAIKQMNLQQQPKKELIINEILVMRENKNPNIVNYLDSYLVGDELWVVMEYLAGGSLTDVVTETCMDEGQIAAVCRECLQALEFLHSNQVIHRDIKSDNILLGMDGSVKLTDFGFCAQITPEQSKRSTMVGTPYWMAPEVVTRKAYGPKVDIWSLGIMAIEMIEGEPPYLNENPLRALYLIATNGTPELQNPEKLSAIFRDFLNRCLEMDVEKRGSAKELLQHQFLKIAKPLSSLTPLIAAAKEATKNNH

[28] = test system: Phosphatidylinositol 4,5-bisphosphate 3-kinase catalytic subunit alpha isoform (Homo sapiens), P42336 [Q546K]; conditions: Compound concentration 1000.0 nM
[29] = target: Phosphatidylinositol 4,5-bisphosphate 3-kinase catalytic subunit beta isoform (Homo sapiens) (UniProt P42338); conditions: Compound concentration 1000.0 nM
[30] = target: Phosphatidylinositol 4-kinase beta (Homo sapiens) (UniProt Q9UBF8); conditions: Compound concentration 1000.0 nM
Chain of Phosphatidylinositol 4-kinase beta (Homo sapiens) (Q9UBF8 2-816 limits assumed): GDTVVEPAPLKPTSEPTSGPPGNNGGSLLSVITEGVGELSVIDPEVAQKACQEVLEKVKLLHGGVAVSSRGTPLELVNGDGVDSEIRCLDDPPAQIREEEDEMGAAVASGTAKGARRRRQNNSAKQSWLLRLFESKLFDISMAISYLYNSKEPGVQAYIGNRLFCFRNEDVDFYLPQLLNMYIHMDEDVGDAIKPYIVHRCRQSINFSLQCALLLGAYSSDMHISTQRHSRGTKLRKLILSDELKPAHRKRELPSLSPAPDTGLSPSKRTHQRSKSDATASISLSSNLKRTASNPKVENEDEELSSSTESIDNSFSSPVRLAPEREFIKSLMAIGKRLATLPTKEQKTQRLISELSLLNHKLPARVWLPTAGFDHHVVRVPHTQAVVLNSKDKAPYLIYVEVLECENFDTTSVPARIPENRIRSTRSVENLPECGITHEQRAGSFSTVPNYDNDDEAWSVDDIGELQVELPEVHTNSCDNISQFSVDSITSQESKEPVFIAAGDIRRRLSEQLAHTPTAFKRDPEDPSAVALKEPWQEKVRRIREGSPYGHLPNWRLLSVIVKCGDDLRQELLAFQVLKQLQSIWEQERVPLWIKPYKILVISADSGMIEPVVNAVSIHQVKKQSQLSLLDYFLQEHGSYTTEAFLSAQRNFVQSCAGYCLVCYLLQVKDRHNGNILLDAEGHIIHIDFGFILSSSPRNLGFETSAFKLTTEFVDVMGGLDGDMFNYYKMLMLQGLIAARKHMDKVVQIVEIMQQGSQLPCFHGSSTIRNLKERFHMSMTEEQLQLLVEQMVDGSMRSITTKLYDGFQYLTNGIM

[31] = target: Ribosomal protein S6 kinase alpha-1 (Homo sapiens) (UniProt Q15418); conditions: Compound concentration 1000.0 nM
[32] = target: NUAK family SNF1-like kinase 2 (Homo sapiens) (UniProt Q9H093); conditions: Compound concentration 1000.0 nM
[33] = target: Serine/threonine-protein kinase 33 (Homo sapiens) (UniProt Q9BYT3); conditions: Compound concentration 1000.0 nM
[34] = target: TGF-beta receptor type-1 (Homo sapiens) (UniProt P36897); conditions: Compound concentration 1000.0 nM
[35] = target: Testis-specific serine/threonine-protein kinase 3 (Homo sapiens) (UniProt Q96PN8); conditions: Compound concentration 1000.0 nM
[36] = target: Serine/threonine-protein kinase WNK2 (Homo sapiens) (UniProt Q9Y3S1); conditions: Compound concentration 1000.0 nM
[37] = target: 5-hydroxytryptamine receptor 1A (Homo sapiens) (UniProt P08908); conditions: Compound concentration 10.0 uM
[38] = target: T1, Alpha-2C adrenergic receptor (Homo sapiens) (UniProt P18825); conditions: Compound concentration 10.0 uM
T1 sequence (whole entry): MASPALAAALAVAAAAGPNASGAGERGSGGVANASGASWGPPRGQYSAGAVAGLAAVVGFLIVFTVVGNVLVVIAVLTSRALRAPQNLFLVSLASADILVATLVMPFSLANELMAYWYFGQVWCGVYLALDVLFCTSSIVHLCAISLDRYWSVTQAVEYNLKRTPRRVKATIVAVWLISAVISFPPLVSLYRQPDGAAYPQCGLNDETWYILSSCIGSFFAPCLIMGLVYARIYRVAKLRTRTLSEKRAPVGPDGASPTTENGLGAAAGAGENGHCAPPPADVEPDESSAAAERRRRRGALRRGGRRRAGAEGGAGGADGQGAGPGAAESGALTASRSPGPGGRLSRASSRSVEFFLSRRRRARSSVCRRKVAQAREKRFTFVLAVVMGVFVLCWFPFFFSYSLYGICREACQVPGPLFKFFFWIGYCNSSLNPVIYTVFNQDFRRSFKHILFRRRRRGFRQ

[39] = target: Muscarinic acetylcholine receptor M5 (Homo sapiens) (UniProt P08912); conditions: Compound concentration 10.0 uM
Chain of Muscarinic acetylcholine receptor M5 (Homo sapiens) (P08912 whole entry): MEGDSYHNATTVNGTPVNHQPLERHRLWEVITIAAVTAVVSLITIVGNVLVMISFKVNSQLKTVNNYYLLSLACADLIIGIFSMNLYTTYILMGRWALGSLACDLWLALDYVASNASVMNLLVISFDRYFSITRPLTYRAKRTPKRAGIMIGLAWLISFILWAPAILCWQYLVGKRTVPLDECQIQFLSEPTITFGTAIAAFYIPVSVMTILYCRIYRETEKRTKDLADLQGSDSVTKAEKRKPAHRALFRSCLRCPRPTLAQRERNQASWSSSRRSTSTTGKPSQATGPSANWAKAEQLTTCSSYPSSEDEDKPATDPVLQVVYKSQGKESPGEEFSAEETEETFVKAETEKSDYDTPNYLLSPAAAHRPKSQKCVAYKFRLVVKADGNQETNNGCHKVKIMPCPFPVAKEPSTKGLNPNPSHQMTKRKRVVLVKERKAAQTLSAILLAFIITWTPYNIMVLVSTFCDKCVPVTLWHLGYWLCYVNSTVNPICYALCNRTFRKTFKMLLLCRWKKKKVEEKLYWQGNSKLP

C[C@H](c1cccc(C#N)c1)n1cc(Cl)cc(C(N)=O)c1=N [(R)-9s]
inactive: residual activity [1] 55% | residual activity [2] 100% | residual activity [3] 94% | residual activity [4] 91% | residual activity [5] 88% | residual activity [6] 100% | residual activity [7] 100% | residual activity [8] 100% | residual activity [9] 77% | residual activity [10] 84% | residual activity [11] 100% | residual activity [12] 66% | residual activity [13] 89% | residual activity [14] 83% | residual activity [15] 100% | residual activity [16] 100% | residual activity [17] 100% | residual activity [18] 82% | residual activity [19] 99% | residual activity [20] 97% | residual activity [21] 100% | residual activity [22] 100% | residual activity [23] 100% | residual activity [24] 100% | residual activity [25] 100% | residual activity [26] 100% | residual activity [27] 100% | residual activity [28] 100% | residual activity [29] 94% | residual activity [30] 100% | residual activity [31] 100% | residual activity [32] 91% | residual activity [33] 92% | residual activity [34] 100% | residual activity [35] 100% | residual activity [36] 58% | inhibition [37] -4.95% | inhibition [38] 42.7% | inhibition [39] 3.44%

C[C@@H](c1cccc(C#N)c1)n1cc(Cl)cc(C(N)=O)c1=N [(S)-9s]
inactive: residual activity [1] 54% | residual activity [2] 100% | residual activity [3] 96% | residual activity [4] 96% | residual activity [5] 85% | residual activity [6] 100% | residual activity [7] 96% | residual activity [8] 100% | residual activity [9] 100% | residual activity [10] 98% | residual activity [11] 92% | residual activity [12] 80% | residual activity [13] 95% | residual activity [14] 79% | residual activity [15] 96% | residual activity [16] 100% | residual activity [17] 100% | residual activity [18] 56% | residual activity [19] 94% | residual activity [20] 100% | residual activity [21] 94% | residual activity [22] 89% | residual activity [23] 82% | residual activity [24] 93% | residual activity [25] 100% | residual activity [26] 100% | residual activity [27] 100% | residual activity [28] 100% | residual activity [29] 93% | residual activity [30] 85% | residual activity [31] 100% | residual activity [32] 86% | residual activity [33] 100% | residual activity [34] 81% | residual activity [35] 100% | residual activity [36] 67% | inhibition [37] 1.02% | inhibition [38] 3.93% | inhibition [39] -1.05%
